Assay results taken from patent publication US20210077439A1 (priority 2016, published 2021).

Tests used:
joints (arthritis) = details: dog, in vivo
[1] = in vivo; cited from earlier work
skeletal muscle = details: in vivo; cited from earlier work
[2] = in vivo; cited from earlier work; remark: listed apart in the source
[3] = tested on: quadriceps (knee extensor musculature); set-up: species or system New Zealand White rabbits; details: rabbit, in vivo
quadriceps muscle = tested on: quadriceps muscle; set-up: species or system New Zealand White rabbits; details: rabbit, in vivo

[Br-].[K+] [potassium bromide, reference compound]
adverse effect of the seizure treatment (joints (arthritis)): severe ataxia

NCC1(CC(=O)O)CCCCC1 [gabapentin, reference compound]
adverse effect of the seizure treatment (joints (arthritis)): severe ataxia

CCC1(c2ccccc2)C(=O)NC(=O)NC1=O [phenobarbital, reference compound]
adverse effect of the seizure treatment (joints (arthritis)): severe ataxia

CC(C)(O)CC(=O)O [HMB-FA]
plasma levels of HMB compared with calcium HMB [1]: approximately double | time to plasma level compared with calcium HMB [1]: about one-quarter the time | decrease in protein breakdown (skeletal muscle): −56% | increase in skeletal muscle protein synthesis (skeletal muscle): +70%

CC(C)(O)CC(=O)O [HMB, β-hydroxy-β-methylbutyric acid]
side effects [2]: no side effects | loss of HMB to urine [1]: 20-50% | botox-induced loss of strength in the contralateral musculature [3]: prevented much of the botox-induced loss of strength | ataxia, owner-observed, after resuming the HMB regimen (joints (arthritis)): significant improvement | joint stability and movement, owner-observed outcome (joints (arthritis)): increased joint stability, decreased joint instability, improved balanced movement and stability of skeletal joints | mobility after resuming the HMB regimen during anti-seizure medication (joints (arthritis)): began standing up without assistance, and was able to climb stairs without significant assistance | contralateral muscle weights as a percentage of body weight versus botox (p<0.10) and control (p<0.03) groups (quadriceps muscle): larger contralateral musculature | muscle hypertrophy in the contralateral leg (quadriceps muscle): greatly increased
